# Source: US8404729B2, “Heterocyclic tetracyclic tetrahydrofuran derivatives” (Janssen Pharmaceutica, NV, priority 2005, dated 2013)
# Molecular target: T1, NET (Rattus norvegicus, UniProt Q63380)
# T1 construct: Cortex from rat brain was collected and homogenised; from tissue; host or cells: rat brain cortex
# Test: In vitro determination of NET reuptake inhibition ([3H]Nixosetine binding)
# Settings: rat brain cortex membranes, read-out: NET-inhibition (pIC50) (converted)
# Experimental: Cortex from rat brain was collected and homogenised using an Ultra-Turrax T25 and a Dual homogeniser in ice-cold homogenising buffer containing Tris, NaCl and KCl (50 mM, 120 mM and 5 mM, respectively, pH 7.4) prior to dilution to an appropriate protein concentration optimised for specific and non-specific binding. […] Membrane-bound activity was detected by filtration through a Packard Filtermate harvester onto GF/B Unifilterplates, washed with ice-cold Tris-HCl buffer, containing NaCl and KCl (50 mM, 120 mM and 4 mM; pH 7.4; 6×0.5 ml). Filters were allowed to dry for 24 h before adding scintillation fluid. Scintillation fluid was allowed to saturate filters for 24 h before counting in a Topcount scintillation counter. Percentage specific bound and competition binding curves were calculated using S-Plus software (Insightful).
# T1 sequence (Q63380 1-617): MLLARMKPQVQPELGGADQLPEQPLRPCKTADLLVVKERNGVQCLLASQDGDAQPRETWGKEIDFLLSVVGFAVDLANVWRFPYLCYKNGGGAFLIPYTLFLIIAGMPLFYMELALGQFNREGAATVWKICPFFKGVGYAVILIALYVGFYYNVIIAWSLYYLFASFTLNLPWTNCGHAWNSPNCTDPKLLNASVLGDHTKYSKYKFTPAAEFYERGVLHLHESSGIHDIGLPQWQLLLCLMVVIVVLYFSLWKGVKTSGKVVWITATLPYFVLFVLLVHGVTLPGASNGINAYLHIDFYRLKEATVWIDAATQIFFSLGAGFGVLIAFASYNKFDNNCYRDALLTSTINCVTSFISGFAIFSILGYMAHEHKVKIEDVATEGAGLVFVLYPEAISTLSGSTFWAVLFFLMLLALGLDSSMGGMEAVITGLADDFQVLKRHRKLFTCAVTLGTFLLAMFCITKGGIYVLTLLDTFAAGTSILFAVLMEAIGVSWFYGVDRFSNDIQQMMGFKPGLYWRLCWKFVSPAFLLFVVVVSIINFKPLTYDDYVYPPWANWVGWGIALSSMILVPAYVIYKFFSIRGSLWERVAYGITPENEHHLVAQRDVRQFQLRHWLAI
row,Structure (SMILES),IC50 [nM]
1,CN(CCO)C[C@H]1C[C@@H]2c3ccccc3Sc3sccc3[C@H]2O1 (relative stereo) [Compound 18],31.6
2,CN(C)CC1CC2c3ccccc3Sc3sccc3C2O1 (stereo not drawn) [Compound 9],316
3,CN(CCO)C[C@H]1C[C@H]2c3ccccc3Sc3sccc3[C@@H]2O1 (relative stereo) [Compound 10],200
4,CNCC1CC2c3ccccc3Cc3sccc3C2O1 (stereo not drawn) [Compound 8],1000
5,CN(CCO)CC1CC2c3ccccc3Sc3sccc3C2O1 (racemic) [Compound 25],126
6,CNCC1CC2c3ccccc3N(Cc3ccccc3)c3ncccc3C2O1 (stereo not drawn) [Compound 36],5010
7,OCCN1CCN(C[C@H]2C[C@@H]3c4ccccc4Sc4sccc4[C@H]3O2)CC1 (relative stereo) [Compound 15],2510
8,CNC[C@H]1C[C@@H]2c3ccccc3Sc3sccc3[C@H]2O1 (racemic) [Compound 20],63.1
9,CNC[C@H]1C[C@@H]2c3ccccc3Sc3sccc3[C@H]2O1 (racemic) [Compound 32],39.8
10,CN(C)CC1CC2c3ccccc3Cc3ccsc3C2O1 (stereo not drawn) [Compound 35],501
11,OCCN1CCN(C[C@H]2C[C@H]3c4ccccc4Sc4sccc4[C@@H]3O2)CC1 (relative stereo) [Compound 12],> 10000
12,CN(C)C[C@@H]1C[C@@H]2c3ccccc3Sc3sccc3[C@H]2O1 [Compound 2],63.1
13,"CNCC1CC2c3ccccc3Sc3sccc3C2O1 (single isomer, unassigned) [Compound 31]",1000
14,CCOC(=O)c1cc2c(s1)Sc1ccccc1C1CC(CN(C)C)OC21 (stereo not drawn) [Compound 34],2510

# Molecular target: T2, 5-HT2A receptors (Rattus norvegicus, UniProt P14842)
# T2 construct: the tissue used is the frontal cortex of the rat; from tissue; host or cells: rat frontal cortex
# Test: In vitro binding affinity for 5-HT2A receptor (3H-ketanserin radioligand binding)
# Settings: frontal cortex of the rat, read-out: 5-HT2A (pIC50) (converted)
# Experimental: The interaction of the compounds of Formula (I) with 5-HT2A and 5-HT2C receptors was assessed in in vitro radioligand binding experiments. […] During the incubation, the radioligands bind to the receptor. When equilibrium of binding is reached, the receptor bound radioactivity is separated from the non-bound radioactivity, and the receptor bound activity is counted. The interaction of the test compounds with the receptors is assessed in competition binding experiments. Various concentrations of the test compound are added to the incubation mixture containing the tissue preparation and the radioligand. Binding of the radioligand will be inhibited by the test compound in proportion to its binding affinity and its concentration. The radioligand used for 5-HT2A binding affinity is ^3H-ketanserin and the tissue used is the frontal cortex of the rat. The radioligand used for 5-HT2c binding affinity is ^3H-mesulergine and the tissue used is the choroid plexus of the pig.
# T2 sequence (P14842 whole entry): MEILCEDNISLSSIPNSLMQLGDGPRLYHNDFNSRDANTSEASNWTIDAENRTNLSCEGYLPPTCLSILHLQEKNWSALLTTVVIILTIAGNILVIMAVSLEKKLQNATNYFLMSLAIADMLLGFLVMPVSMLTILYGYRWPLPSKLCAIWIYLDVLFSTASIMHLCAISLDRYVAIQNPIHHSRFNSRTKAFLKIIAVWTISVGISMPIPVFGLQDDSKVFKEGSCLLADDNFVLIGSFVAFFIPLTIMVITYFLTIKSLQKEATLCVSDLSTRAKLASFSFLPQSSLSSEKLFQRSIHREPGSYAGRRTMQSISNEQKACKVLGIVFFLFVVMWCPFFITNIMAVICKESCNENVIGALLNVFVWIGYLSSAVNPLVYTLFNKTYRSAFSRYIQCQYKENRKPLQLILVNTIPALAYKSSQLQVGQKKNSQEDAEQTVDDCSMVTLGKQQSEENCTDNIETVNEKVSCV
row,Structure (SMILES),IC50 [nM]
1,CN(CCO)C[C@H]1C[C@@H]2c3ccccc3Sc3sccc3[C@H]2O1 (relative stereo) [Compound 18],39.8
2,CN(C)CC1CC2c3ccccc3Sc3sccc3C2O1 (stereo not drawn) [Compound 9],15.8
3,CN(CCO)C[C@H]1C[C@H]2c3ccccc3Sc3sccc3[C@@H]2O1 (relative stereo) [Compound 10],12.6
4,CNCC1CC2c3ccccc3Cc3sccc3C2O1 (stereo not drawn) [Compound 8],> 10000
5,CN(CCO)CC1CC2c3ccccc3Sc3sccc3C2O1 (racemic) [Compound 25],10
6,OCCN1CCN(C[C@H]2C[C@@H]3c4ccccc4Sc4sccc4[C@H]3O2)CC1 (relative stereo) [Compound 15],200
7,CNC[C@H]1C[C@@H]2c3ccccc3Sc3sccc3[C@H]2O1 (racemic) [Compound 20],79.4
8,CN(C)CC1CC2c3ccccc3Cc3ccsc3C2O1 (stereo not drawn) [Compound 35],6.31
9,OCCN1CCN(C[C@H]2C[C@H]3c4ccccc4Sc4sccc4[C@@H]3O2)CC1 (relative stereo) [Compound 12],12.6
10,CN(C)C[C@@H]1C[C@@H]2c3ccccc3Sc3sccc3[C@H]2O1 [Compound 2],< 10
11,CCOC(=O)c1cc2c(s1)Sc1ccccc1C1CC(CN(C)C)OC21 (stereo not drawn) [Compound 34],158

# Molecular target: T3, human Dopamine D2L receptor (Homo sapiens, UniProt P14416)
# T3 construct: expressed in transfected cells; host or cells: CHO cells
# Test: In vitro binding affinity for human D2L receptor ([3H]Spiperone)
# Settings: membranes of human D2L receptor-transfected CHO cells, read-out: D2 (pIC50) (converted)
# Experimental: Frozen membranes of human Dopamine D2L receptor-transfected CHO cells were thawed, briefly homogenised using an Ultra-Turrax T25 homogeniser and diluted in Tris-HCl assay buffer containing NaCl, CaCl2, MgCl2, KCl (50, 120, 2, 1, and 5 mM respectively, adjusted to pH 7.7 with HCl) to an appropriate protein concentration optimised for specific and non-specific binding. Radioligand [^3H]Spiperone (NEN, specific activity ˜70 Ci/mmol) was diluted in assay buffer at a concentration of 2 nmol/L. Prepared radioligand (50 μl), along with 50 μl of either the 10% DMSO control, Butaclamol (10^−6 mol/l final concentration), or compound of interest, was then incubated (30 min, 37° C.) with 400 μl of the prepared membrane solution. Membrane-bound activity was filtered through a Packard Filtermate harvester onto GF/B Unifilterplates and washed with ice-cold Tris-HCl buffer (50 mM; pH 7.7; 6×0.5 ml). Filters were allowed to dry before adding scintillation fluid and counting in a Topcount scintillation counter. Percentage specific bound and competition binding curves were calculated using S-Plus software (Insightful).
# T3 sequence (P14416 whole entry): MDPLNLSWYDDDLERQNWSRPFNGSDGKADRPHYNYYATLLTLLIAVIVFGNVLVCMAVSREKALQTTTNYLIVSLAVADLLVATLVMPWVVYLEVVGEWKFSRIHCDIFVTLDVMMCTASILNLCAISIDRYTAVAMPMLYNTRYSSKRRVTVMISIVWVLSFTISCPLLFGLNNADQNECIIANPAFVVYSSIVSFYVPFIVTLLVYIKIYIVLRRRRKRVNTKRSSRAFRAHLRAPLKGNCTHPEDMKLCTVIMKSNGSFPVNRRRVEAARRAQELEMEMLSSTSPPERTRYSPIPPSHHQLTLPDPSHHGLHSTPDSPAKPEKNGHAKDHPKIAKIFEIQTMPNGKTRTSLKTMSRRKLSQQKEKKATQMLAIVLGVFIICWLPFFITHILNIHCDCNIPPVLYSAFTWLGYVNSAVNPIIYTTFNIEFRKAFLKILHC
row,Structure (SMILES),IC50 [nM]
1,CN(C)CC1CC2c3ccccc3Sc3sccc3C2O1 (stereo not drawn) [Compound 9],398
2,CN(CCO)C[C@H]1C[C@H]2c3ccccc3Sc3sccc3[C@@H]2O1 (relative stereo) [Compound 10],200
3,CNCC1CC2c3ccccc3Cc3sccc3C2O1 (stereo not drawn) [Compound 8],3160
4,CN(CCO)CC1CC2c3ccccc3Sc3sccc3C2O1 (racemic) [Compound 25],200
5,CNCC1CC2c3ccccc3N(Cc3ccccc3)c3ncccc3C2O1 (stereo not drawn) [Compound 36],6310
6,OCCN1CCN(C[C@H]2C[C@@H]3c4ccccc4Sc4sccc4[C@H]3O2)CC1 (relative stereo) [Compound 15],251
7,CNC[C@H]1C[C@@H]2c3ccccc3Sc3sccc3[C@H]2O1 (racemic) [Compound 20],1260
8,CNC[C@H]1C[C@@H]2c3ccccc3Sc3sccc3[C@H]2O1 (racemic) [Compound 32],2000
9,CN(C)CC1CC2c3ccccc3Cc3ccsc3C2O1 (stereo not drawn) [Compound 35],794
10,OCCN1CCN(C[C@H]2C[C@H]3c4ccccc4Sc4sccc4[C@@H]3O2)CC1 (relative stereo) [Compound 12],31.6
11,CN(C)C[C@@H]1C[C@@H]2c3ccccc3Sc3sccc3[C@H]2O1 [Compound 2],200
12,"CNCC1CC2c3ccccc3Sc3sccc3C2O1 (single isomer, unassigned) [Compound 31]",1260
13,CCOC(=O)c1cc2c(s1)Sc1ccccc1C1CC(CN(C)C)OC21 (stereo not drawn) [Compound 34],3980

# Molecular target: T4, 5-HT2C receptors (Sus scrofa, UniProt K7GSR7)
# T4 construct: the tissue used is the choroid plexus of the pig; from tissue; host or cells: pig choroid plexus
# T4 sequence (K7GSR7 1-457): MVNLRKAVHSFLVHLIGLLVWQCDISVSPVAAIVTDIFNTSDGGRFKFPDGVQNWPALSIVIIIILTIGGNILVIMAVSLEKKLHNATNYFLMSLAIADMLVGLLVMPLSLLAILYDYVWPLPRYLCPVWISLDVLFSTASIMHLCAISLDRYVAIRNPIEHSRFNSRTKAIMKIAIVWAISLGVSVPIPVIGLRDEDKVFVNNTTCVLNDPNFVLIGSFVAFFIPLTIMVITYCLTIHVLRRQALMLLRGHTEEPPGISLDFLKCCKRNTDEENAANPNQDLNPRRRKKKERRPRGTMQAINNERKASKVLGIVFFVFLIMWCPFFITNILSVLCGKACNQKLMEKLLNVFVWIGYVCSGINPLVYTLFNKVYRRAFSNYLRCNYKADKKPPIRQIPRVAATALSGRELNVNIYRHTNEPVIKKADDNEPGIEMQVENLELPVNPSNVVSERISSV
# Test: In vitro binding affinity for 5-HT2C receptor (3H-mesulergine radioligand binding)
# Settings: choroid plexus of the pig, read-out: 5-HT2C (pIC50) (converted)
# Experimental: The interaction of the compounds of Formula (I) with 5-HT2A and 5-HT2C receptors was assessed in in vitro radioligand binding experiments. In general, a low concentration of a radioligand with a high binding affinity for the receptor is incubated with a sample of a tissue preparation enriched in a particular receptor (1 to 5 mg tissue) in a buffered medium (0.2 to 5 ml). During the incubation, the radioligands bind to the receptor. When equilibrium of binding is reached, the receptor bound radioactivity is separated from the non-bound radioactivity, and the receptor bound activity is counted. The interaction of the test compounds with the receptors is assessed in competition binding experiments. Various concentrations of the test compound are added to the incubation mixture containing the tissue preparation and the radioligand. Binding of the radioligand will be inhibited by the test compound in proportion to its binding affinity and its concentration. The radioligand used for 5-HT2A binding affinity is ^3H-ketanserin and the tissue used is the frontal cortex of the rat. The radioligand used for 5-HT2c binding affinity is ^3H-mesulergine and the tissue used is the choroid plexus of the pig.
row,Structure (SMILES),IC50 [nM]
1,CN(CCO)C[C@H]1C[C@@H]2c3ccccc3Sc3sccc3[C@H]2O1 (relative stereo) [Compound 18],39.8
2,CN(C)CC1CC2c3ccccc3Sc3sccc3C2O1 (stereo not drawn) [Compound 9],25.1
3,CN(CCO)C[C@H]1C[C@H]2c3ccccc3Sc3sccc3[C@@H]2O1 (relative stereo) [Compound 10],20
4,CNCC1CC2c3ccccc3Cc3sccc3C2O1 (stereo not drawn) [Compound 8],63.1
5,CN(CCO)CC1CC2c3ccccc3Sc3sccc3C2O1 (racemic) [Compound 25],10
6,CNCC1CC2c3ccccc3N(Cc3ccccc3)c3ncccc3C2O1 (stereo not drawn) [Compound 36],631
7,OCCN1CCN(C[C@H]2C[C@@H]3c4ccccc4Sc4sccc4[C@H]3O2)CC1 (relative stereo) [Compound 15],251
8,CNC[C@H]1C[C@@H]2c3ccccc3Sc3sccc3[C@H]2O1 (racemic) [Compound 20],50.1
9,CN(C)CC1CC2c3ccccc3Cc3ccsc3C2O1 (stereo not drawn) [Compound 35],15.8
10,OCCN1CCN(C[C@H]2C[C@H]3c4ccccc4Sc4sccc4[C@@H]3O2)CC1 (relative stereo) [Compound 12],251
11,CN(C)C[C@@H]1C[C@@H]2c3ccccc3Sc3sccc3[C@H]2O1 [Compound 2],7.94
12,"CNCC1CC2c3ccccc3Sc3sccc3C2O1 (single isomer, unassigned) [Compound 31]",27.5
13,CCOC(=O)c1cc2c(s1)Sc1ccccc1C1CC(CN(C)C)OC21 (stereo not drawn) [Compound 34],316
